Assay results published in ChEMBL document CHEMBL1687752, “Impact of antifungal prophylaxis on colonization and azole susceptibility of Candida species” (2009).
Converted amounts (≈) assume the structure as drawn.

Columns and labels:
Assay type in all cases: functional
Nakaseomyces glabratus [1] = assay: Antifungal activity against Candida glabrata isolated from neutropenic subject 1497 with AML or MDS pharynx receiving antifungal drug after 61 days prophylaxis by broth microdilution method
Candida albicans [2] = assay: Antifungal activity against Candida albicans isolated from neutropenic subjects with AML or MDS prior to initiation of fluconazole therapy assessed as maximum MIC by broth microdilution method
Nakaseomyces glabratus [3] = assay: Antifungal activity against 12 days cultured Candida glabrata isolated from HSCT recipient with acute or chronic GVHD mouth receiving antifungal therapy for 143 days after 116 days of prophylaxis by broth microdilution method
Nakaseomyces glabratus [4] = assay: Antifungal activity against Candida glabrata isolated from neutropenic subjects with AML or MDS prior to initiation of fluconazole therapy assessed as maximum MIC by broth microdilution method
Pichia kudriavzevii [5] = assay: Antifungal activity against 1 day cultured Candida krusei isolated from neutropenic subject with AML or MDS pharynx receiving antifungal therapy for 19 days after 6 days of prophylaxis by broth microdilution method
Pichia kudriavzevii [6] = assay: Antifungal activity against Candida krusei isolated from neutropenic subjects with AML or MDS prior to initiation of posaconazole therapy assessed as maximum MIC by broth microdilution method
Candida albicans [7] = assay: Antifungal activity against Candida albicans isolated from neutropenic subjects with AML or MDS receiving fluconazole by broth microdilution method
Nakaseomyces glabratus [8] = assay: Antifungal activity against -2 days cultured Candida glabrata isolated from HSCT recipient with acute or chronic GVHD mouth receiving antifungal therapy for 172 days after 114 days of prophylaxis by broth microdilution method
Nakaseomyces glabratus [9] = assay: Antifungal activity against 176 days cultured Candida glabrata isolated from HSCT recipient with acute or chronic GVHD mouth receiving antifungal therapy for 168 days after 113 days of prophylaxis by broth microdilution method
Nakaseomyces glabratus [10] = assay: Antifungal activity against Candida glabrata isolated from neutropenic subjects with AML or MDS receiving fluconazole assessed as maximum MIC by broth microdilution method
Candida albicans [11] = assay: Antifungal activity against Candida albicans isolated from neutropenic subjects with AML or MDS receiving posaconazole by broth microdilution method
Nakaseomyces glabratus [12] = assay: Antifungal activity against Candida glabrata isolated from neutropenic subject 1491 with AML or MDS pharynx after 23 days prophylaxis by broth microdilution method; conditions: 552 h
Nakaseomyces glabratus [13] = assay: Antifungal activity against 177 days cultured Candida glabrata isolated from HSCT recipient with acute or chronic GVHD mouth receiving antifungal therapy for 172 days after 114 days of prophylaxis by broth microdilution method
Nakaseomyces glabratus [14] = assay: Antifungal activity against 60 days cultured Candida glabrata isolated from HSCT recipient with acute or chronic GVHD mouth receiving antifungal therapy for 75 days after 33 days of prophylaxis by broth microdilution method
Nakaseomyces glabratus [15] = assay: Antifungal activity against 1 day cultured Candida glabrata isolated from neutropenic subject with AML or MDS stool receiving antifungal therapy for 25 days after 3 days of prophylaxis by broth microdilution method
Pichia kudriavzevii [16] = assay: Antifungal activity against 14 days cultured Candida krusei isolated from neutropenic subject with AML or MDS pharynx after 12 days of prophylaxis by broth microdilution method
Nakaseomyces glabratus [17] = assay: Antifungal activity against 176 days cultured Candida glabrata isolated from HSCT recipient with acute or chronic GVHD mouth receiving antifungal therapy for 172 days after 114 days of prophylaxis by broth microdilution method
Pichia kudriavzevii [18] = assay: Antifungal activity against 14 days cultured Candida krusei isolated from neutropenic subject with AML or MDS stool after 12 days of prophylaxis by broth microdilution method
Candida albicans [19] = assay: Antifungal activity against 1 day cultured Candida albicans isolated from HSCT recipient with acute or chronic GVHD mouth after 2 days of prophylaxis by broth microdilution method
Nakaseomyces glabratus [20] = assay: Antifungal activity against 16 days cultured Candida glabrata isolated from HSCT recipient with acute or chronic GVHD mouth receiving antifungal therapy for 31 days after 28 days of prophylaxis by broth microdilution method
Nakaseomyces glabratus [21] = assay: Antifungal activity against Candida glabrata isolated from neutropenic subject 1318 with AML or MDS stool receiving antifungal drug after 36 days prophylaxis by broth microdilution method
Nakaseomyces glabratus [22] = assay: Antifungal activity against Candida glabrata isolated from HSCT recipients with acute or chronic GVHD receiving fluconazole by broth microdilution method
Nakaseomyces glabratus [23] = assay: Antifungal activity against 10 days cultured Candida glabrata isolated from neutropenic subject with AML or MDS stool receiving antifungal therapy for 37 days after 9 days of prophylaxis by broth microdilution method
Nakaseomyces glabratus [24] = assay: Antifungal activity against 1 day cultured Candida glabrata isolated from HSCT recipient with acute or chronic GVHD mouth after 17 days of prophylaxis by broth microdilution method
Pichia kudriavzevii [25] = assay: Antifungal activity against 13 days cultured Candida krusei isolated from invasive fungal infected subject blood after 12 days of prophylaxis by broth microdilution method
Nakaseomyces glabratus [26] = assay: Antifungal activity against 19 days cultured Candida glabrata isolated from HSCT recipient with acute or chronic GVHD mouth after 17 days of prophylaxis by broth microdilution method
Nakaseomyces glabratus [27] = assay: Antifungal activity against Candida glabrata isolated from HSCT recipient 474 with acute or chronic GVHD mouth after 124 days prophylaxis by broth microdilution method
Nakaseomyces glabratus [28] = assay: Antifungal activity against Candida glabrata isolated from HSCT recipients with acute or chronic GVHD receiving posaconazole by broth microdilution method
Nakaseomyces glabratus [29] = assay: Antifungal activity against 59 days cultured Candida glabrata isolated from HSCT recipient with acute or chronic GVHD mouth receiving antifungal therapy for 75 days after 33 days of prophylaxis by broth microdilution method
Candida tropicalis = assay: Antifungal activity against -3 days cultured Candida tropicalis isolated from neutropenic subject with AML or MDS pharynx receiving antifungal therapy for 45 days after 24 days of prophylaxis by broth microdilution method
Nakaseomyces glabratus [30] = assay: Antifungal activity against Candida glabrata isolated from HSCT recipients with acute or chronic GVHD receiving posaconazole assessed as maximum MIC by broth microdilution method
Nakaseomyces glabratus [31] = assay: Antifungal activity against Candida glabrata isolated from neutropenic subject 1102 with AML or MDS stool receiving antifungal drug after 26 days prophylaxis by broth microdilution method; conditions: 624 h
Nakaseomyces glabratus [32] = assay: Antifungal activity against 23 days cultured Candida glabrata isolated from neutropenic subject with AML or MDS stool receiving antifungal therapy for 25 days after 3 days of prophylaxis by broth microdilution method
Nakaseomyces glabratus [33] = assay: Antifungal activity against Candida glabrata isolated from neutropenic subject 1497 with AML or MDS pharynx after 61 days prophylaxis by broth microdilution method
Nakaseomyces glabratus [34] = assay: Antifungal activity against Candida glabrata isolated from neutropenic subjects with AML or MDS prior to initiation of posaconazole therapy assessed as maximum MIC by broth microdilution method
Nakaseomyces glabratus [35] = assay: Antifungal activity against 56 days cultured Candida glabrata isolated from HSCT recipient with acute or chronic GVHD mouth receiving antifungal therapy for 172 days after 114 days of prophylaxis by broth microdilution method
Nakaseomyces glabratus [36] = assay: Antifungal activity against 36 days cultured Candida glabrata isolated from neutropenic subject with AML or MDS pharynx after 48 days of prophylaxis by broth microdilution method
Nakaseomyces glabratus [37] = assay: Antifungal activity against Candida glabrata isolated from HSCT recipients with acute or chronic GVHD prior to initiation of posaconazole therapy assessed as maximum MIC by broth microdilution method
Nakaseomyces glabratus [38] = assay: Antifungal activity against 43 days cultured Candida glabrata isolated from HSCT recipient with acute or chronic GVHD mouth receiving antifungal therapy for 172 days after 114 days of prophylaxis by broth microdilution method

OC(Cn1cncn1)(Cn1cncn1)c1ccc(F)cc1F [FLUCONAZOLE]
MIC (Nakaseomyces glabratus [1]): > 64 µg/mL | MIC (Candida albicans [2]): 1 µg/mL | MIC (Nakaseomyces glabratus [3]): 64 µg/mL (≈ 209 µM) | MIC (Nakaseomyces glabratus [4]): 64 µg/mL | MIC (Pichia kudriavzevii [5]): 32 µg/mL (≈ 104 µM) | MIC (Pichia kudriavzevii [6]): 32 µg/mL | MIC50 (Candida albicans [7]): 0.25 µg/mL (≈ 0.816 µM) | MIC90 (Candida albicans [7]): 0.5 µg/mL (≈ 1.63 µM) | MIC (Nakaseomyces glabratus [8]): 16 µg/mL (≈ 52.2 µM) | MIC (Nakaseomyces glabratus [9]): > 64 µg/mL | MIC (Nakaseomyces glabratus [10]): 16 µg/mL | MIC50 (Candida albicans [11]): 0.25 µg/mL (≈ 0.816 µM) | MIC90 (Candida albicans [11]): 0.25 µg/mL (≈ 0.816 µM) | MIC (Nakaseomyces glabratus [12]): 4 µg/mL (≈ 13.1 µM) | MIC (Nakaseomyces glabratus [13]): 32 µg/mL (≈ 104 µM) | MIC (Nakaseomyces glabratus [14]): > 64 µg/mL | MIC (Nakaseomyces glabratus [15]): 16 µg/mL (≈ 52.2 µM) | MIC (Pichia kudriavzevii [16]): 64 µg/mL (≈ 209 µM) | MIC (Nakaseomyces glabratus [17]): 32 µg/mL (≈ 104 µM) | MIC (Pichia kudriavzevii [18]): 64 µg/mL (≈ 209 µM) | MIC (Candida albicans [19]): < 0.12 µg/mL | MIC (Nakaseomyces glabratus [20]): < 2 µg/mL | MIC (Nakaseomyces glabratus [21]): > 64 µg/mL | MIC50 (Nakaseomyces glabratus [22]): 32 µg/mL (≈ 104 µM) | MIC90 (Nakaseomyces glabratus [22]): 64 µg/mL (≈ 209 µM) | MIC (Nakaseomyces glabratus [23]): 8 µg/mL (≈ 26.1 µM) | MIC (Nakaseomyces glabratus [24]): > 64 µg/mL | MIC (Pichia kudriavzevii [25]): > 64 µg/mL | MIC (Nakaseomyces glabratus [26]): > 64 µg/mL | MIC (Nakaseomyces glabratus [27]): 16 µg/mL (≈ 52.2 µM) | MIC50 (Nakaseomyces glabratus [28]): 64 µg/mL (≈ 209 µM) | MIC90 (Nakaseomyces glabratus [28]): 64 µg/mL (≈ 209 µM) | MIC (Nakaseomyces glabratus [29]): 16 µg/mL (≈ 52.2 µM) | MIC (Candida tropicalis): 0.5 µg/mL (≈ 1.63 µM) | MIC (Nakaseomyces glabratus [30]): 64 µg/mL | MIC (Nakaseomyces glabratus [31]): > 64 µg/mL | MIC (Nakaseomyces glabratus [32]): 4 µg/mL (≈ 13.1 µM) | MIC (Nakaseomyces glabratus [33]): 2 µg/mL (≈ 6.53 µM) | MIC (Nakaseomyces glabratus [34]): 32 µg/mL | MIC (Nakaseomyces glabratus [35]): 4 µg/mL (≈ 13.1 µM) | MIC (Nakaseomyces glabratus [36]): 8 µg/mL (≈ 26.1 µM) | MIC (Nakaseomyces glabratus [37]): 64 µg/mL | MIC (Nakaseomyces glabratus [38]): 16 µg/mL (≈ 52.2 µM)

CCC(C)n1ncn(-c2ccc(N3CCN(c4ccc(OCC5COC(Cn6cncn6)(c6ccc(Cl)cc6Cl)O5)cc4)CC3)cc2)c1=O (stereo unspecified) [ITRACONAZOLE]
MIC (Nakaseomyces glabratus [1]): 8 µg/mL (≈ 11.3 µM) | MIC (Candida albicans [2]): 0.125 µg/mL | MIC (Nakaseomyces glabratus [3]): 4 µg/mL (≈ 5.67 µM) | MIC (Nakaseomyces glabratus [4]): 8 µg/mL | MIC (Pichia kudriavzevii [5]): 0.125 µg/mL (≈ 0.177 µM) | MIC (Pichia kudriavzevii [6]): 0.5 µg/mL | MIC50 (Candida albicans [7]): 0.015 µg/mL (≈ 0.0213 µM) | MIC90 (Candida albicans [7]): 0.015 µg/mL (≈ 0.0213 µM) | MIC (Nakaseomyces glabratus [8]): 1 µg/mL (≈ 1.42 µM) | MIC (Nakaseomyces glabratus [9]): 2 µg/mL (≈ 2.83 µM) | MIC (Nakaseomyces glabratus [10]): 8 µg/mL | MIC50 (Candida albicans [11]): 0.015 µg/mL (≈ 0.0213 µM) | MIC90 (Candida albicans [11]): 0.03 µg/mL (≈ 0.0425 µM) | MIC (Nakaseomyces glabratus [12]): 1 µg/mL (≈ 1.42 µM) | MIC (Nakaseomyces glabratus [13]): 1 µg/mL (≈ 1.42 µM) | MIC (Nakaseomyces glabratus [14]): 4 µg/mL (≈ 5.67 µM) | MIC (Nakaseomyces glabratus [15]): 8 µg/mL (≈ 11.3 µM) | MIC (Pichia kudriavzevii [16]): 0.25 µg/mL (≈ 0.354 µM) | MIC (Nakaseomyces glabratus [17]): 8 µg/mL (≈ 11.3 µM) | MIC (Pichia kudriavzevii [18]): 0.25 µg/mL (≈ 0.354 µM) | MIC (Candida albicans [19]): < 0.03 µg/mL | MIC (Nakaseomyces glabratus [20]): < 1 µg/mL | MIC (Nakaseomyces glabratus [21]): > 8 µg/mL | MIC50 (Nakaseomyces glabratus [22]): 1 µg/mL (≈ 1.42 µM) | MIC90 (Nakaseomyces glabratus [22]): 16 µg/mL (≈ 22.7 µM) | MIC (Nakaseomyces glabratus [23]): 2 µg/mL (≈ 2.83 µM) | MIC (Nakaseomyces glabratus [24]): > 8 µg/mL | MIC (Pichia kudriavzevii [25]): 0.25 µg/mL (≈ 0.354 µM) | MIC (Nakaseomyces glabratus [26]): > 8 µg/mL | MIC (Nakaseomyces glabratus [27]): 4 µg/mL (≈ 5.67 µM) | MIC50 (Nakaseomyces glabratus [28]): 2 µg/mL (≈ 2.83 µM) | MIC90 (Nakaseomyces glabratus [28]): 8 µg/mL (≈ 11.3 µM) | MIC (Nakaseomyces glabratus [29]): 1 µg/mL (≈ 1.42 µM) | MIC (Candida tropicalis): 0.03 µg/mL (≈ 0.0425 µM) | MIC (Nakaseomyces glabratus [30]): 8 µg/mL | MIC (Nakaseomyces glabratus [31]): > 8 µg/mL | MIC (Nakaseomyces glabratus [32]): 0.125 µg/mL (≈ 0.177 µM) | MIC (Nakaseomyces glabratus [33]): 0.06 µg/mL (≈ 0.085 µM) | MIC (Nakaseomyces glabratus [34]): 8 µg/mL | MIC (Nakaseomyces glabratus [35]): 0.5 µg/mL (≈ 0.709 µM) | MIC (Nakaseomyces glabratus [36]): 1 µg/mL (≈ 1.42 µM) | MIC (Nakaseomyces glabratus [37]): 8 µg/mL | MIC (Nakaseomyces glabratus [38]): 2 µg/mL (≈ 2.83 µM)
